In US7148325B2, “Chimeric retroviral gag genes and screening assays” (priority 2000, dated 2006):
“Also recorded” adds a separate entry of the source.

Key:
M-PMV Gag [1] = biological target: T1, M-PMV Gag (Mason-Pfizer monkey virus, UniProt P07567); experiment: In vitro transcription/translation and assembly, sucrose density gradient fractionation and SDS-PAGE, M-PMV Gag; assay type: biochemical; conditions: added with cyclohexamide after 30 minutes of incubation, reaction continued 90 minutes
T1 construct: made in house; host or cells: cell-free: coupled in vitro transcription/translation in rabbit reticulocyte lysate
T1 sequence (P07567 whole entry): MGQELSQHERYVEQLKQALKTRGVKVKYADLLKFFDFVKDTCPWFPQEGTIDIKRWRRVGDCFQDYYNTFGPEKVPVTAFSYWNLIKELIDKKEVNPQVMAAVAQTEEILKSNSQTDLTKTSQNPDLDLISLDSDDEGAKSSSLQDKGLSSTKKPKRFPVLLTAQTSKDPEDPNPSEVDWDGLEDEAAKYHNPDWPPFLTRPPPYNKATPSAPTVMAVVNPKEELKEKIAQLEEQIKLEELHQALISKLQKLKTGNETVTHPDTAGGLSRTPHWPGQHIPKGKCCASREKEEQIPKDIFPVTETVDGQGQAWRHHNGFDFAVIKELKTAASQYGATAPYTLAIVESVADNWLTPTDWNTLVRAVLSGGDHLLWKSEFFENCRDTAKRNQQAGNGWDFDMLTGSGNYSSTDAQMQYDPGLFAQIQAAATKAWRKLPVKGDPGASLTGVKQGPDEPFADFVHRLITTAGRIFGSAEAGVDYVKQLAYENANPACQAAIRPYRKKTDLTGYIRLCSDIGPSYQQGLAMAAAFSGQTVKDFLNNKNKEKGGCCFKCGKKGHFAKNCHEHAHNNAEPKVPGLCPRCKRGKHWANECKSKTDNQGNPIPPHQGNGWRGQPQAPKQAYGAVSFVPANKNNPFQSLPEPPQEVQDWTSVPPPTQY
Method: (§1) FIGS. 3A–E—In vitro transcription and translation reactions using plasmids containing M-PMV, HIV, and Chimera 3a gag genes. After 30 minutes of incubation, cyclohexamide (left panels, FIGS. 3A, 3C, and 3E) or cyclohexamide plus bis-ANS (right panels, FIGS. 3B, 3D, and 3F) were added to the reactions. The reactions were then allowed to continue for an additional 90 minutes. Assembled products were analyzed by sucrose density gradient fractionation and SDS-PAGE. Like M-PMV, but in contrast to HIV, the formation of sedimented material indicative of particle formation by Chimera 3a has been inhibited by the addition of bis-ANS.
FIGS. 4A–D—In vitro transcription and translation reactions using plasmids containing M-PMV and Chimera 4 gag genes. After 30 minutes of incubation, cyclohexamide (left panels, FIGS. 4A and 4C) or cyclohexamide plus bis-ANS (right panels, FIGS. 4B and 4D) were added to the reactions. The reactions were then allowed to continue for an additional 90 minutes. Assembled products were analyzed by sucrose density gradient fractionation and SDS-PAGE. Like M-PMV, the formation of sedimented material by Chimera 4 has been inhibited by the addition of bis-ANS. Lanes L and P indicate the loading material and re-suspended pellet, respectively. […]

Chimera 3a = biological target: T2, Chimera 3a (Human immunodeficiency virus type 1 group M subtype B, UniProt P04591); experiment: In vitro transcription/translation and assembly, sucrose density gradient fractionation and SDS-PAGE, Chimera 3a Gag; assay type: biochemical, HIV / M-PMV; conditions: added with cyclohexamide after 30 minutes of incubation, reaction continued 90 minutes
T2 construct: made in house; host or cells: cell-free: in vitro transcription/translation (reticulocyte lysate) from plasmid pDABCh3a
Method: as §1
(§2) In vitro assembly assays, such as that taught by Sakalian, M., et al. (1996), “Synthesis and assembly of retrovirus Gag precursors into immature capsids in vitro,” J Virol 70, pp. 3706–15, hereby incorporated by reference in its entirety, maybe used to screen for inhibitors of capsid assembly. Briefly, in vitro transcription of chimeric gag -containing plasmids to produce capped RNA transcripts may be performed using the mMESSAGE MMACHINE kit (Ambion, Austin, Tex.), in accordance with the manufacturers instructions. Translation reactions may be performed in the presence of [^35S]methionine in commercially-available rabbit reticulocyte lysates, according to the instructions of the manufacturer (for example, Promega). […]

Chimera 4 = biological target: T3, Chimera 4 (Human immunodeficiency virus type 1 group M subtype B, UniProt P04591); experiment: In vitro transcription/translation and assembly, sucrose density gradient fractionation and SDS-PAGE, Chimera 4 Gag; assay type: biochemical, HIV / M-PMV; conditions: added with cyclohexamide after 30 minutes of incubation, reaction continued 90 minutes
T3 construct: the megaprimer reaction yielded a product that contained all of HIV Gag fused to M-PMV p12; made in house; host or cells: cell-free: in vitro transcription/translation (reticulocyte lysate) from plasmid pDABCh4
Method: FIGS. 4A–D—In vitro transcription and translation reactions using plasmids containing M-PMV and Chimera 4 gag genes. After 30 minutes of incubation, cyclohexamide (left panels, FIGS. 4A and 4C) or cyclohexamide plus bis-ANS (right panels, FIGS. 4B and 4D) were added to the reactions. The reactions were then allowed to continue for an additional 90 minutes. Assembled products were analyzed by sucrose density gradient fractionation and SDS-PAGE. Like M-PMV, the formation of sedimented material by Chimera 4 has been inhibited by the addition of bis-ANS. Lanes L and P indicate the loading material and re-suspended pellet, respectively.
as §2

HIV Gag = biological target: T4, HIV Gag (Human immunodeficiency virus type 1 group M subtype B, UniProt P04591); experiment: In vitro transcription/translation, sucrose density gradient fractionation and SDS-PAGE, HIV Gag; assay type: biochemical; conditions: added with cyclohexamide after 30 minutes of incubation, reaction continued 90 minutes
T4 construct: made in house; host or cells: cell-free: in vitro transcription/translation (reticulocyte lysate)
Method: as §1, §2

M-PMV Gag [2] = biological target: T1, M-PMV Gag; experiment: In vitro transcription/translation, pelleting through a sucrose cushion (rapid centrifugation assay), M-PMV Gag; assay type: biochemical; conditions: added after 30 minutes, continued 90 minutes; sucrose cushion 35% w/v
Method: FIG. 5—In vitro transcription and translation reactions using plasmids containing M-PMV gag genes. After 30 minutes of incubation, anti-p 12 antibody or bis-ANS was added to the reactions. The reactions were then allowed to continue for an additional 90 minutes. Assembled products were analyzed by pelleting through a sucrose cushion (35% w/v). Synthesis reactions were pelleted through a sucrose cushion, and supernatant and pellet were then collected for gel analysis. […] Lanes S and P indicate supernatant and pellet, respectively.

In the case of `O=S(=O)(O)c1cccc2c(-c3ccc(Nc4ccccc4)c4c(S(=O)(=O)O)cccc34)ccc(Nc3ccccc3)c12` [bis-ANS], the “formation of sedimented material by M-PMV Gag” value (M-PMV Gag [1]) is reported as “inhibited”, the “formation of sedimented material indicative of particle formation by Chimera 3a” value (Chimera 3a) is reported as “inhibited; also recorded: largely blocked” and the “formation of sedimented material by Chimera 4” value (Chimera 4) is reported as “inhibited; also recorded: largely blocked”. The “distribution of HIV Gag in sucrose gradients” value (HIV Gag) was “no effect” and the “formation of pelletable material by M-PMV Gag (immature M-PMV viral capsids)” value (M-PMV Gag [2]) was “reduce or prevent; also recorded: significantly reduce”.
